The values that follow come from paper PMC12655252, “Synthesis of 1H-Pyrrolo[3,2-g]isoquinoline Derivatives as Ligands Targeting Haspin Kinase” (Molecules, 2025).

For orientation: IC50 means the concentration at which inhibition is half-maximal. For orientation: Ki means a dissociation constant, usually derived from enzyme kinetics or from competition with a known ligand.

The test system of one assay is Haspin. The conditions noted are these: Figure 2; cited from earlier work.
The next assay deals with T1, HsCK1ε (Homo sapiens, UniProt P49674).
T1 construct: made in house; host or cells: Sf9 insect cells
Description: ADP-Glo in vitro kinase inhibition assay, CK1ε. The class given is biochemical. The conditions noted are these: 10 μM ATP, read-out: CK1 % residual activity; for remaining activity at 1 µM: 1 μM compound; for remaining activity at 10 µM: 10 μM compound. As to the method:
(§1) We previouly reported that substitution at the 3-position with halogen atoms or pyridinyl or formyl groups was compatible with high potency toward Haspin kinase. To check if the current structural changes were in line with potent Haspin inhibition and high selectivity, enabling consideration of these compounds as possible targeting ligands for the PROTAC approach, compounds 2, 3, 8–11, and 15–17 were evaluated toward a panel of eight protein kinases, including Haspin, as well as other kinases known to be frequently cross-inhibited (CLK1, DYRK1A, CDK9/Cyclin T, GSK-3β, CK1ε, CDK5/p25, and Pim1) (Table 1). The percentage of residual kinase activity was evaluated at 10 μM and 1 μM compound concentrations. […].
(§2) Kinase inhibition was tested in 384-well plates using the ADP-GloTM assay kit (Promega, Madison, WI, USA) according to the procedure recommended by the manufacturer. Reactions were set up in a final volume of 6 μL in an appropriate kinase buffer (10 mM MgCl2, 1 mM EGTA, 1 mM DTT, 25 mM Tris-HCl pH 7.5, 50 μg/mL heparin) with either protein or peptide as the substrate in the presence of 10 μM ATP. To stop the kinase reaction, 6 μL of ADP-GloTM Kinase Reagent was added after 30 min at 30 °C. Then, after 50 min of incubation at room temperature (RT), 12 μL of Kinase Detection Reagent was added. The transmitted signal was measured after 1 h at RT using the Envision (Perkin Elmer, Waltham, MA, USA) microplate luminometer and expressed in relative light units (RLU). In order to determine the half-maximal inhibitory concentration (IC50), all assays were performed in duplicate in the absence or presence of increasing doses of the tested compounds. GraphPad Prism10 software (GraphPad Software, San Diego, CA, USA) was used to fit dose–response curves and to determine the IC50 values. Kinase activities are given as percentages of maximal activity, i.e., measured in the absence of inhibitor. Peptide substrates were obtained from Proteogenix (Schiltigheim, France).
(§3) The following protein kinases were analyzed in this study: CDK5/p25 (human, vector pGEX-2T, expressed in bacteria; kindly provided by Dr. J. H. Wang) was assayed with 0.8 μg/μL of histone H1 as substrate; HsCDK9/CyclinT (NP_001252/KAI4065659, cloned in pTEFb vector, expressed by baculovirus in Sf9 insect cells) were assayed with 0.27 μg/μL of the following peptide: […], as substrate; HsCK1ε (NP_001885, cloned in pFAST-BAC vector, expressed in Sf9 insect cells) was assayed with 0.022 μg/μL of the following peptide: […]pAYSITA (“Sp” stands for phosphorylated serine) as CK1-specific substrate; HsGSK3β (AAH12760, cloned in pFAST-BAC, expressed by baculovirus in Sf9 insect cells) were assayed with 0.010 μg/μL of GS-1 peptide, a GSK-3-selective substrate ([…]pEDEEE); HsHaspin-kd (NP_114171, kinase domain, amino acids 470–798 cloned in pGEX-6P-3, expressed in bacteria) was assayed with 0.007 μg/μL of histone H3 (1–21) peptide ([…]) as substrate; Pim-1 (KAI4018123, expressed in bacteria) was assayed with 0.8 μg/μL of histone H1 as substrate; HsCLK1 (NP_004062, cloned in pFAST-BAC, expressed in Sf9 insect cells) was assayed with 0.027 μg/μL of the peptide: […]; RnDYRK1A-kd (Rattus norvegicus, amino acids 1–499, pGEX-2TK, expressed in bacteria, gift from Dr. W. Becker, Aachen, Germany) was tested in the presence of 0.033 μg/μL of the peptide: […].
(ADP-Glo turns the ADP formed in a reaction into a luminescent signal.)

A further assay addresses T2, RnDYRK1A-kd (Rattus norvegicus, UniProt Q63470).
T2 construct: Rattus norvegicus, amino acids 1–499, pGEX-2TK; made in house; host or cells: bacteria
Description: ADP-Glo in vitro kinase inhibition assay, DYRK1A. The class given is biochemical. As to conditions: 10 μM ATP, read-out: DYRK1A % residual activity; for remaining activity at 1 µM: 1 μM compound; for remaining activity at 10 µM: 10 μM compound. As to the method:
as §1, §2, §3

In another assay the target is T3, Pim-1 (Homo sapiens, UniProt P11309).
T3 construct: made in house; host or cells: bacteria
The assay is described as follows: ADP-Glo in vitro kinase inhibition assay, Pim-1. As to conditions: 10 μM ATP, read-out: PIM1 % residual activity; for remaining activity at 1 µM: 1 μM compound; for remaining activity at 10 µM: 10 μM compound. It is filed as biochemical. How it is done: as §1, §2, §3

The target of a further assay is T4, CDK5/p25 (Homo sapiens, UniProt Q00535).
T4 construct: made in house; host or cells: bacteria
The assay is described as follows: ADP-Glo in vitro kinase inhibition assay, CDK5/p25. It is filed as biochemical. As to conditions: 10 μM ATP, read-out: CDK5 % residual activity; for remaining activity at 1 µM: 1 μM compound; for remaining activity at 10 µM: 10 μM compound. As to the method: as §1, §2, §3

The next assay addresses T5, HsGSK3β (Homo sapiens, UniProt P49841).
T5 construct: made in house; host or cells: Sf9 insect cells (baculovirus)
Description: ADP-Glo in vitro kinase inhibition assay, GSK3β. It is filed as biochemical. The conditions noted are these: 10 μM ATP, read-out: GSK3 % residual activity; for remaining activity at 1 µM: 1 μM compound; for remaining activity at 10 µM: 10 μM compound. As to the method: as §1, §2, §3

Another assay deals with T6, HsHaspin-kd (Homo sapiens, UniProt Q8TF76).
T6 construct: kinase domain, amino acids 470–798 cloned in pGEX-6P-3; made in house; host or cells: bacteria
T6 sequence (Q8TF76 470-798): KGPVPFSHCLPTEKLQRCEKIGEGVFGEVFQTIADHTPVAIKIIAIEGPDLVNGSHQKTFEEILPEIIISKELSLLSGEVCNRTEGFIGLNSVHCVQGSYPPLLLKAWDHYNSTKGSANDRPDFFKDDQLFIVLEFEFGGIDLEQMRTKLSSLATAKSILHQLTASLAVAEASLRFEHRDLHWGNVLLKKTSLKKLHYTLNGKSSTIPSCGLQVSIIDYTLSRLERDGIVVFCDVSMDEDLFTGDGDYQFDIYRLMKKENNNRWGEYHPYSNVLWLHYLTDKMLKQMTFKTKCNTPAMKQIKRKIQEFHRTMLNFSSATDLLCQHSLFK
Description: ADP-Glo in vitro kinase inhibition assay, Haspin. It is filed as biochemical. As to conditions: 10 μM ATP, duplicate; for remaining activity at 1 µM: 1 μM compound; for remaining activity at 1 µM / remaining activity at 10 µM: read-out: Haspin % residual activity; for remaining activity at 10 µM: 10 μM compound. How it is done:
as §1, §2, §3

The target in the next assay is T7, HsCDK9/CyclinT (Homo sapiens, UniProt P50750).
T7 construct: made in house; host or cells: Sf9 insect cells (baculovirus)
Description: ADP-Glo in vitro kinase inhibition assay, CDK9/CyclinT. The class given is biochemical. The conditions noted are these: 10 μM ATP, read-out: CDK9 % residual activity; for remaining activity at 1 µM: 1 μM compound; for remaining activity at 10 µM: 10 μM compound. As to the method:
as §1, §2, §3

Another assay has as its target T8, HsCLK1 (Homo sapiens, UniProt P49759).
T8 construct: made in house; host or cells: Sf9 insect cells
Description: ADP-Glo in vitro kinase inhibition assay, CLK1. As to conditions: 10 μM ATP, read-out: CLK1 % residual activity; for remaining activity at 1 µM: 1 μM compound; for remaining activity at 10 µM: 10 μM compound. It is filed as biochemical. As to the method:
as §1, §2, §3

T5 sequence (P49841 whole entry): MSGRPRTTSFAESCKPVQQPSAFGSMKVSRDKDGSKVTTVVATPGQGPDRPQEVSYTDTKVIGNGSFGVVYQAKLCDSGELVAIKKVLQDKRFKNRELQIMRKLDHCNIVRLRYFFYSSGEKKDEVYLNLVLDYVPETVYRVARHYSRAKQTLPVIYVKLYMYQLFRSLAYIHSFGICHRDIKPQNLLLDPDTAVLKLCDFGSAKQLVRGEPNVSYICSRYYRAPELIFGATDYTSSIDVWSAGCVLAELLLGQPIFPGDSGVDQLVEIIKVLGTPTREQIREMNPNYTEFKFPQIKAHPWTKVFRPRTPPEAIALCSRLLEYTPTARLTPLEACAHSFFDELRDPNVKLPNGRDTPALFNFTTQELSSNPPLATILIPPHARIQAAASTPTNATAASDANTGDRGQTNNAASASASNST
T3 sequence (P11309 whole entry): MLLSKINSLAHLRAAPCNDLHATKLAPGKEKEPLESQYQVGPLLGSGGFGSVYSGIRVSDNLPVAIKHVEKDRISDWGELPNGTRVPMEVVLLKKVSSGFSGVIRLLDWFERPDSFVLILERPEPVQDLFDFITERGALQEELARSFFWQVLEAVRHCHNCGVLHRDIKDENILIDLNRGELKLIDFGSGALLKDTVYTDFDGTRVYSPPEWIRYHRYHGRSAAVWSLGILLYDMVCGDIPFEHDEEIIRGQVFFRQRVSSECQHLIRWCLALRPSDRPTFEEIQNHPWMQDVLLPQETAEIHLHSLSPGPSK
T1 sequence (P49674 whole entry): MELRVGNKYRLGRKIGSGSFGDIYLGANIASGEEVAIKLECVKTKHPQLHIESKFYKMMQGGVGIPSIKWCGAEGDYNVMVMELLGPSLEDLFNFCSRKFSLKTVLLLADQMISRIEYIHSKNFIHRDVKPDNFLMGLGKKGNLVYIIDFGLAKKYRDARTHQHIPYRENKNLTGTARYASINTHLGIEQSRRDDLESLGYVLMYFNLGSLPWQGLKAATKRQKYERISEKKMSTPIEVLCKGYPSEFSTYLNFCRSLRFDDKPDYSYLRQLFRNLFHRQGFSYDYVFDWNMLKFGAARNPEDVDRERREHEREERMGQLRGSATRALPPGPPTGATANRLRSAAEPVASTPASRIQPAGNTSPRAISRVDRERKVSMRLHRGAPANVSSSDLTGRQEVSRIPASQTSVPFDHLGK
T4 sequence (Q00535 whole entry): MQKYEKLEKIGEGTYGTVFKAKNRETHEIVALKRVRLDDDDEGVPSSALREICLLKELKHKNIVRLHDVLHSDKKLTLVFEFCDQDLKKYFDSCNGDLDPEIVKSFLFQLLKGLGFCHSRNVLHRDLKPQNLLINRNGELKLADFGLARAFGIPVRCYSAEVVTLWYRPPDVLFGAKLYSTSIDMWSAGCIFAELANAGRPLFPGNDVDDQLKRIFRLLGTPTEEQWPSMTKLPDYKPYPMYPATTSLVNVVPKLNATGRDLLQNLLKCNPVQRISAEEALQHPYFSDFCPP
T4 sequence (Q15078 99-307 partner limits assumed): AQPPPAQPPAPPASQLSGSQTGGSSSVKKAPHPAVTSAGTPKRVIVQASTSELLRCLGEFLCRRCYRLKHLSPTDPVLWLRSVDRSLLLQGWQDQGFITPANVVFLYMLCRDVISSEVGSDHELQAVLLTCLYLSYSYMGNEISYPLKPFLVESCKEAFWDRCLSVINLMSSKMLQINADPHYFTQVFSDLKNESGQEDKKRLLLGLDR
T7 sequence (P50750 whole entry): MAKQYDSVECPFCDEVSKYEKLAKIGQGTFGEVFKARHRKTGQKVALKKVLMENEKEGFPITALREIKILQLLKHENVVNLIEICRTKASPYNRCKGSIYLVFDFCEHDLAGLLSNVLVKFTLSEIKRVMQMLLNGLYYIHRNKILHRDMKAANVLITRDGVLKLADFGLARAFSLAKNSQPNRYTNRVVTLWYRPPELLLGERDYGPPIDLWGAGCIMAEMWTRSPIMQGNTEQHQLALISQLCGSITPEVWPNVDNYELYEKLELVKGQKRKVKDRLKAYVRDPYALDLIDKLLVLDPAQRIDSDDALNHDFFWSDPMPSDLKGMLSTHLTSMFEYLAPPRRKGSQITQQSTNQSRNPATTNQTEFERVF
T7 sequence (O60563 whole entry partner): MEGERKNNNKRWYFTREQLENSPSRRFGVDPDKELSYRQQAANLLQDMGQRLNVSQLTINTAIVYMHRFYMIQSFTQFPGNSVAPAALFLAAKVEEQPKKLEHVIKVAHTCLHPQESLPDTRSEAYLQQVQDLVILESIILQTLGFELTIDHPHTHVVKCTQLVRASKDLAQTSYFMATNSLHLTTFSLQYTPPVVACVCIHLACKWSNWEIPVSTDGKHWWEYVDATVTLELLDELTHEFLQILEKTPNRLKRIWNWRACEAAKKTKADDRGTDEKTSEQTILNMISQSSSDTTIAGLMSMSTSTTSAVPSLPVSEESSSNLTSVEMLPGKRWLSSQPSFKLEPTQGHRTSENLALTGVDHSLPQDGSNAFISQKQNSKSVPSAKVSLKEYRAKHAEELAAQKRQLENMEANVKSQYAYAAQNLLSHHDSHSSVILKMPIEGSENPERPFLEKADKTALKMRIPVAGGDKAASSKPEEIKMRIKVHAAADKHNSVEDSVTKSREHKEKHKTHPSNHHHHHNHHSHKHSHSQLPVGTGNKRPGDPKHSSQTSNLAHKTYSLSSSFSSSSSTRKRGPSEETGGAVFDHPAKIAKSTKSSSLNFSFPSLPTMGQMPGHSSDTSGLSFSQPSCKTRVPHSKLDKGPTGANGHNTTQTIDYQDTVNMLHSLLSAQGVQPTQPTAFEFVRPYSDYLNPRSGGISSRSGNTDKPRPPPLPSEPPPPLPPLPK
T8 sequence (P49759 whole entry): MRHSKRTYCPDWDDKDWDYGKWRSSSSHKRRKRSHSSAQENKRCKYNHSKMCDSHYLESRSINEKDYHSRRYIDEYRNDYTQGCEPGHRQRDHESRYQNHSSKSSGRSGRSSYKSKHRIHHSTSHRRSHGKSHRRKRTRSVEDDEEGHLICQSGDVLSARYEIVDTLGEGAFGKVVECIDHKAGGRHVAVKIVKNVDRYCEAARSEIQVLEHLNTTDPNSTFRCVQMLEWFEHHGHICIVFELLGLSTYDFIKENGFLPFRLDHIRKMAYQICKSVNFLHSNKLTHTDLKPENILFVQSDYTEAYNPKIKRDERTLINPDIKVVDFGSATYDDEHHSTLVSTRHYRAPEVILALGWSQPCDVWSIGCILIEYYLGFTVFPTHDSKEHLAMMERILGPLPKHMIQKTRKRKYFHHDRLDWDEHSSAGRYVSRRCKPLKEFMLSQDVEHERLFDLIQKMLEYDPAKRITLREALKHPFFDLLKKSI

On to `Nc1ncnc2c1c(I)cn2[C@@H]1O[C@H](CO)[C@@H](O)[C@H]1O` [5-Iodotubercidin, 5-iodotubercidin], for which the half-inhibitory concentration (IC50) in the assay with Haspin is […].
Regarding `Clc1cc(-c2c[nH]c3cc4cnccc4cc23)ccn1` [Compound 2, 3-(2-Chloro-pyridin-4-yl)-1H-pyrrolo[3,2-g]isoquinoline], the remaining activity at 1 µM at HsCK1ε came out at 79%; at RnDYRK1A-kd, 20%; on Pim-1, 20%; on CDK5/p25, 100%; on HsGSK3β, 76%; on HsHaspin-kd it was 9%. For the same molecule, the figures for the remaining activity at 1 µM at HsCDK9/CyclinT and on HsCLK1 were 81% and 56%, respectively. Further, the remaining activity at 10 µM at HsCK1ε was 54%; on RnDYRK1A-kd it was 16%; on Pim-1, 14%; on CDK5/p25, 100%; at HsGSK3β it was 81%; at HsHaspin-kd it was 8%. In addition, the remaining activity at 10 µM turned out to be 56% at HsCDK9/CyclinT and 27% on HsCLK1. On HsHaspin-kd, this molecule displayed a 50% inhibitory concentration (IC50) of 10.1 nM.
As for `CC(C)(C)OC(=O)/C=C/c1c[nH]c2cc3cnccc3cc12` [Compound 9, tert-Butyl (E)-3-(1H-Pyrrolo[3,2-g]isoquinolin-3-yl)prop-2-enoate], the remaining activity at 1 µM at HsCK1ε was found to be 92%; at RnDYRK1A-kd, 51%; at Pim-1 it was 42%; on CDK5/p25, 100%; on HsGSK3β it was 80%; on HsHaspin-kd it was 30%. Also, the remaining activity at 1 µM on HsCDK9/CyclinT stood at 79%; on HsCLK1 it was 86%. The remaining activity at 10 µM at HsCK1ε was determined as 87%; on RnDYRK1A-kd, 28%; on Pim-1, 21%; on CDK5/p25, 100%; at HsGSK3β, 80%; on HsHaspin-kd, 12%. In addition, the remaining activity at 10 µM was determined as 32% at HsCDK9/CyclinT and 48% on HsCLK1. Moreover, the IC50 on HsHaspin-kd stood at 392 nM.
With `COC(=O)CCc1c[nH]c2cc3cnccc3cc12` [Compound 10, Methyl 3-(1H-Pyrrolo[3,2-g]isoquinolin-3-yl)propanoate], the remaining activity at 1 µM is 100% on HsCK1ε; 72% at RnDYRK1A-kd; 72% at Pim-1; 100% at CDK5/p25; 100% on HsGSK3β; 45% at HsHaspin-kd. The values for the remaining activity at 1 µM on HsCDK9/CyclinT and on HsCLK1 were 90% and 91%, respectively. Further, the remaining activity at 10 µM came to 97% on HsCK1ε; 32% on RnDYRK1A-kd; 52% at Pim-1; 100% at CDK5/p25; 99% on HsGSK3β; 10% on HsHaspin-kd. The remaining activity at 10 µM at HsCDK9/CyclinT was determined as 72%; at HsCLK1 it was 60%. The half-inhibitory concentration (IC50) at HsHaspin-kd was determined as 82.1 nM.
With `CC(C)(C)OC(=O)CCc1c[nH]c2cc3cnccc3cc12` [Compound 11, tert-Butyl 3-(1H-Pyrrolo[3,2-g]isoquinolin-3-yl)propanoate], the remaining activity at 1 µM on HsCK1ε stood at 98%; at RnDYRK1A-kd, 58%; on Pim-1, 70%; at CDK5/p25, 100%; on HsGSK3β it was 83%; at HsHaspin-kd, 70%. The remaining activity at 1 µM was determined as 100% at HsCDK9/CyclinT and 98% on HsCLK1. For the same molecule, the remaining activity at 10 µM at HsCK1ε stood at 81%; at RnDYRK1A-kd, 31%; at Pim-1, 60%; at CDK5/p25 it was 100%; on HsGSK3β, 94%; at HsHaspin-kd, 52%. The figures for the remaining activity at 10 µM on HsCDK9/CyclinT and at HsCLK1 were 86% and 81%, respectively.
Turning to `Cc1ccc(NC(=O)c2ccc3c(c2)c(CNCCN2CCNCC2)cn3C)cc1C` [Compound A], the IC50 in the assay with Haspin was 0.01 nM.
`COc1ccc2c(c1)[nH]c1c(C)nccc12` [Harmine, harmine]: the IC50 with Haspin is 590 nM.
In the case of `COc1ccc2nc3ccc(OC)cc3c(SCCCN)c2c1` [LDN-192960], in the assay with Haspin, the half-maximal inhibitory concentration (IC50) was […].
On to `COc1ccc2nc3ccc(Cl)cc3c(SCCCN)c2c1` [LDN-209929], for which, in the assay on Haspin, the IC50 is 55 nM.
For `C#Cc1cn([C@@H]2S[C@H](CN=[N+]=[N-])[C@@H](O)[C@H]2O)c2ncnc(N)c12` [LJ-4827], the Ki on Haspin is 0.465 nM.
In the case of harmol, the IC50 in the assay on Haspin is 770 nM.
